Source: ChEMBL document CHEMBL3507680, “University of Dundee, Gates Library screen for HepG2 cell viability”

assay: Human HepG2 cell viability assay in 384 well format; format: toxicity, cell-based; parameters: dose 125 nL, time 70.5 hour; concentration not given beside the values; conditions: HepG2 cells, read-out: Inhibition

Row | SMILES | cytotoxicity at 70.5 h [%]
1 | CC(C)c1nc(CSc2nnc(Cn3cncn3)o2)cs1 | 0.92
2 | Cc1cccc(C(=O)N2CCC(C(=O)c3cc(F)ccc3F)CC2)n1 | -7.52
3 | O=C1COC2(CCN(C(=O)C3CC=CC3)CC2)CN1Cc1cccnc1 | 12.1
4 | CNC(=O)C1(c2cnccn2)CCCN1C(=O)c1ccc(OC)cc1 (stereo not drawn) | 18.7
5 | COCCCNC(=O)Nc1cccc(Cl)c1-n1cccn1 | -3.36
6 | CN1CCCC1c1cncc(C(=O)NCCN2CCCCC2)n1 (stereo not drawn) | -8.33
7 | Cc1cn2c(n1)CCC(NC(=O)CCOc1ccccc1F)C2 (stereo not drawn) | -5.57
8 | COc1ccc(-c2noc(Cn3cnc(C)c3)n2)c(OC)c1OC | -0.844
9 | O=C(c1ccnnc1)N1CCO[C@H]2[C@@H](OCc3cccnc3)CC[C@@H]21 | -6.56
10 | COC(=O)CCNC(=O)c1c[nH]cc1-c1ccccc1OC | -3.42
11 | COc1ncc(C2(O)CCN(Cc3cc(F)ccc3F)CC2)c(OC)n1 | -5.13
12 | CCN(Cc1cc(Cl)ccc1OC)Cc1cc(C)nn1C | 2.1
13 | CCCc1cc(=O)[nH]c2nnc(SCC(C)=O)n12 | -6.78
14 | CCc1cnc(CN(C)C2CCN(CCc3ccccn3)C2)o1 (stereo not drawn) | 10.2
15 | CC(=O)N1CCC(C(=O)c2cnn(-c3ccccc3)c2N)C1 (stereo not drawn) | -7.91
16 | CCCc1nnnn1Cc1cn2c(C)cccc2n1 | -2.3
17 | Cc1cccc(NC(=O)CNC(=O)c2ccccc2F)c1 | 4.02
18 | Cc1cc(C)n(CCCN(C)Cc2cn[nH]c2-c2ccc(F)cc2)n1 | -9.49
19 | CC(C)C(C(=O)N1CCN(c2nccs2)CC1)n1cncn1 (stereo not drawn) | 0.606
20 | CC(C)N(CC(=O)Nc1cccc(C(=O)N(C)C)c1)C1CC1 | 7.53
21 | O=C(NC1CCCN(c2ccccc2F)C1)c1ccon1 (stereo not drawn) | -9.69
22 | CC(C)(C)S(=O)(=O)CCNC(=O)c1ccc2cc[nH]c2c1 | -0.00861
23 | CC(C)(C)OC(=O)NC(C)(C)c1noc(CSc2ccccn2)n1 | -1.21

Row | SMILES | cytotoxicity at 70.5 h [%]
24 | CN(Cc1noc(C2CC2)n1)C1CCN(CCc2cccs2)C1 (stereo not drawn) | -2.4
25 | CN(C)CC(=O)N1CCCC2(CCN(c3ccccc3)C2=O)C1 (stereo not drawn) | -9.67
26 | Cc1noc(C2CCCN(C(=O)c3cc(Cl)c(Cl)n3C)C2)n1 (stereo not drawn) | -6.05
27 | O=C(c1ccc(-n2cnnc2)cc1Cl)N1CCCC2(CCNC2)C1 (stereo not drawn) | 2.05
28 | O=C(NCC1(C(=O)O)CCC1)c1nnn(-c2ccc(F)cc2)c1C1CC1 | 11.7
29 | CNC(=O)C1CN(Cc2cc(C)on2)CCN(C2CCOCC2)C1 (stereo not drawn) | -7.77
30 | Cc1nc2n(n1)CCN(S(=O)(=O)c1ccc(Cl)cc1)C2 | -3.28
31 | CSc1ccccc1C(=O)N1CCOC(CCN(C)C)C1 (stereo not drawn) | -15.3
32 | CCOC(=O)c1coc(N2CCN(Cc3ccc(C)cc3)C(=O)C2)n1 | 0.779
33 | COc1cc(OC)cc(-n2ccnc2-c2cc3n(n2)CCNC3)c1 | 19.3
34 | CC(=O)N(C)CC(=O)NCC1(c2cccc(C)c2)CCCC1 | 1.29
35 | Cc1nn(CCC#N)c(C)c1[C@@H]1C=C[C@@H](NCc2ccc(F)cc2)C1 | -0.333
36 | Cc1ccc(CN2Cc3nnn(C)c3C(COCc3ccccn3)C2)s1 (stereo not drawn) | -0.991
37 | CCSCCC(=O)Nc1ncn(CC(=O)NCc2ccccc2)n1 | -7.93
38 | CS(=O)(=O)N1Cc2ccccc2C2(CCN(C(=O)c3ccno3)CC2)C1 | 7.95
39 | CC(C)CC(=O)Nc1cc(C(=O)N(C)C(C)C)ccc1Cl | -8.37
40 | CCc1noc(CN2CCN(CC(O)c3ccccc3)CC2)n1 (stereo not drawn) | -3.73
41 | CCn1ccnc1CNCC(c1ccc(C)s1)N1CCOCC1 (stereo not drawn) | -7.92
42 | CNCC(=O)Nc1ccc(-c2cnc(NCCS(C)(=O)=O)nc2)cc1 | -0.605
43 | Cn1cnnc1CN1CCC2(CCCN(C3CCCCC3)C2=O)C1 (stereo not drawn) | -1.45
44 | COc1ccc(C(C#N)NC(=O)CC2=CCCCC2)c(OC)c1 (stereo not drawn) | -3.57
45 | Cc1nn(C)c2c(=O)n(CC(=O)NCCC3=CCCCC3)ccc12 | -1.87
46 | Cc1cnn(CC2CCCCN2C(=O)c2ccc3[nH]cnc3c2)c1 (stereo not drawn) | 8.11

Row | SMILES | cytotoxicity at 70.5 h [%]
47 | COc1cc(NC(=O)NCCO)ccc1N1CCOC1=O | -6.58
48 | CN(Cc1cnccn1)S(=O)(=O)c1ccc(C(F)(F)F)nc1 | 36.5
49 | O=C1NC2(CCN(Cc3cccnc3)CC2)CC1c1ccncc1 (stereo not drawn) | -10.6
50 | Cc1nc(SC2CCN(c3sccc3C#N)C2=O)oc1C (stereo not drawn) | -1.94
51 | Cc1cnn(CCCNC(=O)N2CCCCC(N3CCCC3)C2)c1 (stereo not drawn) | -6.01
52 | COc1cc(S(=O)(=O)N2CCc3ccc(F)cc32)cc(C(=O)O)c1OC | 10.1
53 | CCCc1nc(CN2CCCC2c2cnn(C)c2)cs1 (stereo not drawn) | 13
54 | CN(C)S(=O)(=O)NCc1nn(CCN2CCCC2)c(=O)c2ccccc12 | -12.7
55 | COc1cc(Cl)c(C)cc1-n1nnc(C(=O)O)c1-c1ccncc1 | 28.1
56 | CCN(CC(F)(F)F)C(=O)C1CCCN(Cc2ccccn2)C1 (stereo not drawn) | -3.97
57 | CN(C)CCCNC(=O)c1ccccc1NC(=O)c1ccccc1Cl | 22.1
58 | O=C(O)c1cnc(N2CCCC2)nc1COc1ccccc1 | -2.71
59 | Cn1cc(N2CC[C@@H]3CN(Cc4ccncc4)C[C@H]3C2=O)cn1 | 2.33
60 | Cc1cc(C)n(CC2CN(CC(=O)Nc3cccnc3)CCO2)n1 (stereo not drawn) | -4.57
61 | O=C(CN1CC(n2cccn2)C1)NCCCc1ccccc1 | -8.01
62 | CCC(=O)N1CCCC(c2nc(-c3cccnn3)no2)C1 (stereo not drawn) | -0.455
63 | c1ccc(C(OCCNC2CCc3ncnn3C2)c2ccccc2)cc1 (stereo not drawn) | -5.27
64 | O=C1COc2cc(C(=O)NS(=O)(=O)c3cc(Cl)ccc3Cl)ccc2N1 | -8.05
65 | COC1COC2(CCN(CC3CC3)CC2)C1 (stereo not drawn) | -12.5
66 | COCc1noc(-c2ccc(N(C)Cc3nccs3)nc2)n1 | -6.18
67 | Fc1cc(CNc2nncs2)ccc1Cl | -2.31
68 | Cc1nc(NC(=O)C(C)N(C)Cc2cccc(C#N)c2)sc1C (stereo not drawn) | 15.8
69 | CC(C)C1CN(C(=O)c2csc(CN(C)C)n2)CCC(=O)N1CC1CC1 (stereo not drawn) | -10.8

Row | SMILES | cytotoxicity at 70.5 h [%]
70 | COc1ccc(Oc2cccc(C#N)n2)cc1CN1CCCC1 | -1.4
71 | COC1CCCN(CCCc2cn[nH]c2)C1 (stereo not drawn) | 0.195
72 | CCC1=N[C@@]2(CC[C@@H]3CN(CC4CC4)C[C@@H]32)C(=O)N1C | -14.1
73 | Cc1cccc(CN2CCCC(O)(CNCc3cccc(F)c3)C2=O)c1 (stereo not drawn) | -5.44
74 | COc1ccnc(N2C[C@@H]3CC[C@H](C2)N(CC2CCC2)C3=O)n1 | -0.827
75 | CCN1CCCC1CNC(=O)CCc1cccs1 (stereo not drawn) | -3.71
76 | Cc1cnn(CCC(=O)N2CCCC(c3cc(C(N)=O)[nH]n3)C2)c1 (stereo not drawn) | -10.9
77 | CN1C(=O)COc2ccc(C(=O)Cn3cnc4ccccc4c3=O)cc21 | -12
78 | COc1ccccc1C1(C(=O)NCCN2CCOCC2)CCOCC1 | -17.1
79 | COc1ccccc1C1CC(=O)Nc2c1c(=O)[nH]n2C1CCCC1 (stereo not drawn) | -11.5
80 | CCC1c2ccccc2CCN1CCNS(C)(=O)=O (stereo not drawn) | -4.6
81 | Cn1cc(CN2CC3(CCN(C(=O)c4ccoc4)C3)C2)cn1 | -6.02
82 | c1coc(CNc2ncc3c(n2)C2(CCNC2)COC3)c1 (stereo not drawn) | -4.32
83 | CSc1ncccc1C(=O)N1C[C@H]2CC[C@@H]1CN(c1ncccn1)C2 | -10.3
84 | CN(C)CC1CSCCCN1S(=O)(=O)Cc1ccc(C(F)(F)F)cc1 (stereo not drawn) | -0.0412
85 | CC(C(=O)NCC(F)(F)F)N1CCC(N2CCN(C)C2=O)CC1 (stereo not drawn) | -8.46
86 | Cc1noc(C2CCN(C(=O)CCNS(C)(=O)=O)CC2)n1 | -17.2
87 | CN(C)c1ccccc1C(=O)N1CCCC(c2cccc(C(=O)O)c2)C1 (stereo not drawn) | -8.42
88 | COc1cccc(COCC(O)CN2CC(n3cccn3)C2)c1 (stereo not drawn) | -6.05
89 | CC1CCCCN1Cc1ccc(-c2ccccc2C(=O)O)cc1 (stereo not drawn) | 0.911
90 | CCN(CC(=O)N(C)C)S(=O)(=O)c1cnc2c(c1)c(C)nn2C | -17.2
91 | O=S1(=O)C[C@@H]2[C@H](C1)N(Cc1cc(Cl)cc(Cl)c1)CCN2CC1CC1 | -17.1
92 | CCc1nc(CNC2CCN(c3ccc(OC)cc3)CC2)cs1 | -5.26

Row | SMILES | cytotoxicity at 70.5 h [%]
93 | Cn1nc(C2CCNC2)c2c(C(=O)NCC(F)(F)F)cc(C3CC3)nc21 (stereo not drawn) | -7.49
94 | CC(c1ccccc1F)N(C(=O)CSCC(N)=O)C1CC1 (stereo not drawn) | 5.29
95 | CS(=O)(=O)N1CCN(C(=O)c2cc(-c3cccs3)cs2)CC1 | -5.33
96 | O=S(=O)(CCN1CCN(c2ccccc2O)CC1)c1ccc(Cl)cc1 | -14.3
97 | Cc1ccc(Sc2ccc(N3CCCC(C(=O)O)C3)nn2)cc1 (stereo not drawn) | 0.439
98 | O=C(CSc1ccc2c(c1)OCCO2)NS(=O)(=O)c1ccccc1F | -5.01
99 | Cc1cccc(CN2CCN(Cc3ccccc3)CC(O)C2)n1 (stereo not drawn) | -12.1
100 | CS(=O)(=O)NCC1CCCCN1Cc1cccc(C#N)c1 (stereo not drawn) | -1.33
101 | Cc1nc(O)cc([C@@H]2CN(C(=O)C3CC3)C[C@H]2c2ccccc2F)n1 | -2.23
102 | O=C(NCC(O)(c1ccco1)C1CC1)c1ccccc1F (stereo not drawn) | -14.8
103 | NCCn1nc(C2CCN(C(=O)CC3CCCCC3)C2)c2nccnc21 (stereo not drawn) | -7.33
104 | O=C(C1=CCCC1)N1C[C@@H]2COC[C@]2(COc2ncccc2F)C1 | 6.81
105 | O=C(NCCN1CCOCC1)c1cc2c(s1)CCN2Cc1cccnc1 | -3.99
106 | CC(Oc1ccc(S(C)(=O)=O)cc1)C(=O)NC(N)=O (stereo not drawn) | -7.21
107 | COc1ccc2c(c1)OCC(Cc1cc(C(=O)N3CCCC3)ccn1)C2 (stereo not drawn) | -32.3
108 | O=C(c1ccncc1)N1CCc2ncnc(C3CC3)c2CC1 | -14.3
109 | CCn1nc(CC(C)C)cc1C(=O)N1C[C@H](O)[C@@H](N2CCCCC2)C1 | -4.55
110 | Cc1nocc1C(=O)N1CCc2c(CN(C)C(C)C)n[nH]c2C1 | -8.09
111 | O=C(NCCn1cnc(C2CCCC2)cc1=O)NCc1cccs1 | -7.11
112 | Cc1csc(N2CCN(Cc3ccccn3)CC2C)n1 (stereo not drawn) | -5.63
113 | Cn1nc(C(=O)N2CC(Oc3nc4c(Cl)cccc4s3)C2)ccc1=O | -8.11
